According to patent US4882359A, “Azacycloalkane derivatives, absorption promoters containing the derivatives as the effective ingredient and external preparations containing the absorption promoters” (priority 1986, dated 1989):

Tests used:
[1] = Percutaneous absorption of pindolol in rats, serum concentration by HPLC; type: in vivo, Wistar-strain male rats; conditions: relative to Control (Vehicle) = 1.0 of the same series in Table 5
Protocol: There were provided groups each consisting of four Wistar-strain male rats each weighing 200 to 250 g and having their dorsal skin hair shorn with an electric shaver.
Each of the test solutions (pindolol-containing preparations) was applied to the shorn dorsal skin of test rats of one of the groups in an amount of 150 μl/2.5×2.5 cm^2 and then sealed up. Three hours after the application of the test solution, the blood of the test rats was collected and measured for serum concentration of pindolol by HPLC.
For comparison, the above procedure was followed except that there was used a control solution which was the same as said test solution except for non-use of any compounds of this invention, and also followed using a comparative test solution which was the same as the test solution except for the substitution of a comparative compound for the compound of this invention.

[2] = relative to Control (Vehicle) = 1.0
Protocol: There were investigated the effects of the compound of this invention on the percutneous penetration of phenol red which is difficult to be penetrated using the dorsal skin of female hairless mice (each 9 weeks old) by a diffusion cell method which comprised adding 0.5 ml of a sodium chloride injection containing 2 mM of phenol red to the donor side and measuring the amount of phenol red permeated into the receptor layer by high-pace optimal densitometric meter (559 nm).

[3] = test system: dorsal skin of Japanese-native rabbits; assay: Primary skin irritation test (Draize's method); type: in vivo; design: key to Average irritation score, 24 hours / Average irritation score, 48 hours / Average irritation score, 72 hours: Draize points: 0-2 mild, 2-6 moderate, 6-8 severe irritation; conditions: for Average irritation score, 24 hours: 3% solution in polyethylene glycol 300, 24 hours after removal of plaster; for Average irritation score, 48 hours: 3% solution in polyethylene glycol 300, 48 hours after removal of plaster; for Average irritation score, 72 hours: 3% solution in polyethylene glycol 300, 72 hours after removal of plaster; for Overall evaluation (skin irritation): graded from irritation scores at 24, 48 and 72 hours
Protocol: As one of tests on the compounds of this invention for their topical toxicity, a primary skin irritation test was made on skins using rabbits as the subjects. More particularly, an adhesive plaster for use in batch tests, to which 100 μl of a 3% test solution of each of the compounds of Examples 12, 37, 57 and 73 of this invention in 100 ml of polyethylene glycol 300 had dropwise been applied, was applied to the hair-shorn dorsal skin of three Japanese-native rabbits weighing 2.5 to 3.0 kg each and then sealed up on the dorsal skin for 24 hours. The rabbits were evaluated three times for their dorsal skin irritative reaction 24, 48 and 72 hours after removal of the plaster by using a method in accordance with the Draize's method.
The results are as shown in Table 18 in which the overall evaluation is represented by the following equation. [formula] and is graded into mild irritation (0-2 points), moderate irritation (2-6 points) and severe irritation (6-8 points).

in vivo = conditions: rat
glucose level in blood [4] = assay: Percutaneous absorption of glibenclamide: glucose level in blood of glucose-loaded rats; type: in vivo, Wistar-strain male rats
Protocol: There were prepared control and test solutions having the following respective formulations (Table 8): […]
In the tests, there were used groups each consisting of four Wistar-strain male rats which weighed about 200 to 250 g and abstained from food for 24 hours.
Each of the control solutions A and B and the test solution indicated in the above Table 8 was applied to the dorsal skins, shorn by an electric clipper or shaver, of the rats of one group in an amount of 175 μl/2.5×2.5 cm^2 and then sealed up. Three hours after sealing up, 1.5 ml of 20% glucose was subcutaneously injected into said rats. Two hours after the glucose injection, the blood of the rats was collected and measured for glucose level in blood.
For comparison, the above procedure was followed except that azone was substituted for the compound of Example 12 in the test solution.
For further comparison, the blood of rats of one group which had been subjected only to 24 hours' abstinence from food (this group being hereinafter referred to as "normal group"), was measured for glucose level in blood. The rat groups to which the control solution A, the control solution B and the test solution were applied, are hereinafter referred to as "control group A", "control group B" and "test group", respectively.

glucose level in blood [5] = assay: Rectal absorption of insulin from suppository: glucose level in blood of rabbits; type: in vivo, male rabbits
Protocol: There were prepared the following suppositories for use in normal, control and test groups, respectively, each group consisting of five male rabbits weighing 2.5 to 3.5 kg each.
The three suppositories were into the rectums of the rabbit groups in an amount of 0.3 g suppository/kg, respectively. Thereafter, blood was collected from the rabbits through their ear vein three times with the lapse of time to measure the three collected blood samples for glucose level in blood by a glucose oxidase method. […] The results are indicated in terms of a change in glucose level in blood with respect to the glucose level in blood prior to the administration of the suppositories.

[6] = Skin penetration of pindolol from test solution, diffusion cell method; type: in vitro ADME, female hairless mice; conditions: test solution, relative to Control (Vehicle) = 1.0

CCCCCCCCCSCCCCN1CCCCCC1=O [Example 39]
Activity (serum concentration of pindolol) [1]: 18.0

CCCCCCCSCCCCCN1CCCCCC1=O [Example 43]
Activity (serum concentration of pindolol) [1]: 16.2

CCCCCCSCCCCCCN1CCCCCC1=O [Example 48]
Activity (serum concentration of pindolol) [1]: 14.9

CCCCSCCCCCCCN1CCCCCC1=O [Example 49]
Activity (serum concentration of pindolol) [1]: 23.2

CCCSCCCCCCCCN1CCCCCC1=O [Example 50]
Activity (serum concentration of pindolol) [1]: 6.6

CCCCCCCCCCOCCN1CCCC1=O [Example 57]
Activity (phenol red permeation) [2]: 65.5
Average irritation score, 24 hours [3]: 0.0 ± 0.0
Average irritation score, 48 hours [3]: 0.3 ± 0.3
Average irritation score, 72 hours [3]: 0.3 ± 0.3
Overall evaluation (skin irritation) [3]: Mild (mild irritation (0-2 points))
LD50 at 168 h (in vivo; po): > 5000 mg/kg
LD50 at 168 h (in vivo; sc): > 5000 mg/kg
Activity (serum concentration of pindolol) [1]: 33.0

CCCCCCCOCCCCCN1CCCC1=O [Example 66]
Activity (serum concentration of pindolol) [1]: 30.2

CCCCCOCCCCCCN1CCCC1=O [Example 67]
Activity (serum concentration of pindolol) [1]: 22.8

CCCCCCCCCCOCCCN1CCCCCC1=O [Example 72]
Activity (serum concentration of pindolol) [1]: 27.2

CCCCCCCOCCCCN1CCCCCC1=O [Example 73]
Activity (phenol red permeation) [2]: 56.3
Average irritation score, 24 hours [3]: 0.3 ± 0.3
Average irritation score, 48 hours [3]: 0.3 ± 0.3
Average irritation score, 72 hours [3]: 0.5 ± 0.5
Overall evaluation (skin irritation) [3]: Mild (mild irritation (0-2 points))
LD50 at 168 h (in vivo; po): > 5000 mg/kg
LD50 at 168 h (in vivo; sc): > 5000 mg/kg
Activity (serum concentration of pindolol) [1]: 34.1

CCCCCCCCOCCCCN1CCCCCC1=O [Example 74]
Activity (serum concentration of pindolol) [1]: 28.9

CCCCCCOCCCCCN1CCCCCC1=O [Example 76]
Activity (serum concentration of pindolol) [1]: 8.3

CCCCCCOCCCCCCN1CCCCCC1=O [Example 80]
Activity (serum concentration of pindolol) [1]: 26.1

COc1ccc(Cl)cc1C(=O)NCCc1ccc(S(=O)(=O)NC(=O)NC2CCCCC2)cc1 [Glibenclamide]
Glucose level (glucose level in blood [4]; glibenclamide 0.6 wt.% solution on dorsal skin, two hours after s.c. 20% glucose): 157 ± 7 mg/dL
effects on hypoglycemic activity (glucose level in blood [4]; glibenclamide used alone, compared with control group A): not exhibit any effects on hypoglycemic activity
Inhibition rate (glucose level in blood [4]; glucose level, relative to control group A and normal group): -3.6%

Insulin: Insulin (Bovine, International Unit); control group (only insulin used)
effects on glucose level in blood (in words) (glucose level in blood [5]; compared with the normal group): exhibited no effects on glucose level in blood
Changes of glucose level to the initial, 0.5 hr (glucose level in blood [5]; insulin suppository 0.3 g/kg rectal, 3% promoter where used, 0.5 hr): -1 mg/dL
Changes of glucose level to the initial, 1 hr (glucose level in blood [5]; insulin suppository 0.3 g/kg rectal, 3% promoter where used, 1 hr): +3 mg/dl
Changes of glucose level to the initial, 3 hrs (glucose level in blood [5]; insulin suppository 0.3 g/kg rectal, 3% promoter where used, 3 hrs): +1 mg/dl

Pyrrolidone carboxylic acid [Pyrolidone carbonic acid, reference compound]
Activity (pindolol permeation) [6]: 0.5
Activity (serum concentration of pindolol) [1]: 2.1
